Consider 20 compounds from patent US9868766B2, “Peptides as oxytocin agonists” (Hoffmann-La Roche Inc., priority 2012, dated 2018).

As usually defined, the EC50 is the concentration needed to bring the measured effect to its halfway point.

The target in the experiment is T1, human Oxytocin (OTR) receptor (Homo sapiens, UniProt P30559).
T1 construct: expressed in transfected cells
T1 sequence (P30559 1-389): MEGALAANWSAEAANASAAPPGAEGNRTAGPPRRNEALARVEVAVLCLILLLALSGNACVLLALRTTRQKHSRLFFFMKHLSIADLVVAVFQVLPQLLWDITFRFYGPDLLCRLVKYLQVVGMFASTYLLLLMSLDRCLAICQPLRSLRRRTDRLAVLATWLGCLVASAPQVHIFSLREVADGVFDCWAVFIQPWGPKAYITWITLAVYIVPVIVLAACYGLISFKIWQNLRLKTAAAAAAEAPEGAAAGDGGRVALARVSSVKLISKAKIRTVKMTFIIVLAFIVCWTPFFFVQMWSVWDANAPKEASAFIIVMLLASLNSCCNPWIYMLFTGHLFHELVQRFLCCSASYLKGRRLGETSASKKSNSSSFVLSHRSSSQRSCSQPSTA
Put plainly: Calcium flux assay (FLIPR), agonist mode, CHO cells expressing human OTR. The note with it: for EC50: CHO cells stably expressing human OTR, calcium flux, read-out: hOT EC50; for hOT efficacy (%) / Emax: maximum response normalized to endogenous full agonist = 100%; for Emax: CHO, read-out: hOT efficacy (%). The experiment is classed as cell-based. The source says: Chines Hamster Ovary (CHO) cells were transfected with expression plasmids encoding either the human V1a, the human Oxytocin (OTR) or the humanV2 receptor, the later in combination with the chimeric Gqs5 G protein to redirect the signal to Calcium flux. Stable cells were cloned by limiting dilution to yield monoclonal cell lines expressing either human V1a, human V2+Gqs5 or human OTR receptors and selected based on functional responses detected on a fluorometric imaging plate reader (FLIPR) detecting Calcium flux in the cell after receptor activation.
On the afternoon before the assay, cells were plated at a density of 50,000 cells/well into black 96 well plates with clear bottoms to allow cell inspection and fluorescence measurements from the bottom of each well. The density of cells was sufficient to yield a confluent monolayer the next day. Hanks balanced salt solution, without phenol red, containing 20 mM HEPES (pH 7.3) and 2.5 mM probenecid (assay buffer) was prepared fresh for each experiment. Compound dilutions were made using a Beckman Biomek 2000 laboratory automation workstation, in assay buffer containing 1% DMSO. The dye-loading buffer consisted of a final concentration of 2 μM Fluo-4-AM (dissolved in DMSO and pluronic acid) in assay buffer. […] Once dye-loaded, the cells were washed thoroughly on an Embla cell washer with the assay buffer to remove any unincorporated dye. Exactly 100 μl assay buffer was left in each well.
Each 96 well plate containing dye-loaded cells was placed into the FLIPR machine and the laser intensity set to a suitable level to detect low basal fluorescence. To test compounds as agonists, 25 μl diluted compound was added to the plate 10 seconds into the fluorescent measurements and fluorescent response was recorded for 5 minutes. The fluorescence data was normalized to the endogenous full agonist dose-response set at 100% for the maximum response and 0% for the minimum. […] The concentration of agonist that produced a half-maximal response is represented by the EC50 value, the logarithm of which yielded the pEC50 value.

Positions of bridges follow the written chain, without caps; N, C: chain ends. Non-standard residues stand in square brackets, D forms with d. Residues, ends and D or L forms follow the SMILES beside them. Pro(trans-4-F) = O=C(O)[C@@H]1C[C@@H](F)CN1; Gly(octyl) = CCCCCCCC[C@H](N)C(=O)O; Aoc(2) = CCCCCC[C@H](N)C(=O)O; αMeL = CC(C)C[C@](C)(N)C(=O)O; Chg = N[C@H](C(=O)O)C1CCCCC1; hLeu = CC(C)CC[C@H](N)C(=O)O; β3hP = O=C(O)C[C@@H]1CCCN1; Ac5c = NC1(C(=O)O)CCCC1; Dap = NC[C@H](N)C(=O)O; Aib = CC(C)(N)C(=O)O; Sar = CNCC(=O)O

On to `CC[C@H](C)[C@@H]1NC(=O)[C@H](Cc2ccc(O)cc2)NC(=O)[C@H](C)NC(=O)CC[C@@H](C(=O)N2CCC[C@H]2C(=O)N[C@@H](CC(C)C)C(=O)NCC(N)=O)NC(=O)[C@H](CC(N)=O)NC(=O)[C@H](CCC(N)=O)NC1=O` [Example 3] (AYIQNEPLG-NH2; lactam N-6), for which the EC50 amounted to 4 nM and the “hOT efficacy (%)” value is 94%.
As to `CC[C@H](C)[C@@H]1NC(=O)[C@H](Cc2ccc(O)cc2)NC(=O)CNC(=O)CC[C@@H](C(=O)N2CCC[C@H]2C(=O)N[C@@H](CC(C)C)C(=O)N(C)CC(N)=O)NC(=O)[C@H](CC(N)=O)NC(=O)[C@H](CCC(N)=O)NC1=O` [Example 5] (GYIQNEPL[Sar]-NH2; lactam N-6), the EC50 worked out at 181 nM and the “hOT efficacy (%)” value was 108%.
With `CC[C@H](C)[C@@H]1NC(=O)[C@H](Cc2ccc(O)cc2)NC(=O)CNC(=O)CC[C@@H](C(=O)N(C)CC(=O)N[C@@H](CN)C(=O)NCC(N)=O)NC(=O)[C@H](CC(N)=O)NC(=O)[C@H](CCC(N)=O)NC1=O` [Example 42] (GYIQNE[Sar][Dap]G-NH2; lactam N-6), the EC50 was 1 nM and the Emax stood at 119%.
Turning to `CC[C@H](C)[C@@H]1NC(=O)[C@H](Cc2ccc(O)cc2)NC(=O)CNC(=O)CC[C@@H](C(=O)N2C[C@H](F)C[C@H]2C(=O)N[C@@H](CC(C)C)C(=O)NCC(N)=O)NC(=O)[C@H](CC(N)=O)NC(=O)[C@H](CCC(N)=O)NC1=O` [Example 46] (GYIQNE[Pro(trans-4-F)]LG-NH2; lactam N-6), the EC50 was 10 nM and the “hOT efficacy (%)” value stood at 104%.
For `CC[C@H](C)[C@@H]1NC(=O)[C@H](Cc2ccc(O)cc2)NC(=O)CNC(=O)CC[C@@H](C(=O)N(C)CC(=O)NC2(C(=O)NCC(N)=O)CCCC2)NC(=O)[C@H](CC(N)=O)NC(=O)[C@H](CCC(N)=O)NC1=O` [Example 48] (GYIQNE[Sar][Ac5c]G-NH2; lactam N-6), the EC50 worked out at 3.6 nM and the Emax came to 108%.
For the compound `CC[C@H](C)[C@@H]1NC(=O)[C@H](Cc2ccc(O)cc2)NC(=O)CNC(=O)CC[C@@H](C(=O)N2CCC[C@H]2C(=O)N[C@@H](CC(C)C)C(=O)NCC(N)=O)NC(=O)[C@H](CC(N)=O)NC(=O)[C@H](Cc2cnc[nH]2)NC1=O` [Example 9] (GYIHNEPLG-NH2; lactam N-6), the EC50 turned out to be 118 nM and the “hOT efficacy (%)” value is reported as 93%.
In the case of `CCCCCCCC[C@H](NC(=O)CN(C)C(=O)[C@@H]1CCC(=O)NCC(=O)N[C@@H](Cc2ccc(O)cc2)C(=O)N[C@@H]([C@@H](C)CC)C(=O)N[C@@H](CCC(N)=O)C(=O)N[C@@H](CC(N)=O)C(=O)N1)C(=O)NCC(N)=O` [Example 54] (GYIQNE[Sar][Gly(octyl)]G-NH2; lactam N-6), the EC50 is 0.8 nM and the Emax is 134%.
In the case of `CC[C@H](C)[C@@H]1NC(=O)[C@H](Cc2ccc(O)cc2)NC(=O)CNC(=O)CC[C@@H](C(=O)N(C)CC(=O)N[C@@H](Cc2c[nH]c3ccccc23)C(=O)NCC(N)=O)NC(=O)[C@H](CC(N)=O)NC(=O)[C@H](CCC(N)=O)NC1=O` [Example 38] (GYIQNE[Sar]WG-NH2; lactam N-6), the EC50 is 1 nM and the Emax was found to be 126%.
In the case of `CCCCCC[C@H](NC(=O)CN(C)C(=O)[C@@H]1CCC(=O)NCC(=O)N[C@@H](Cc2ccc(O)cc2)C(=O)N[C@@H]([C@@H](C)CC)C(=O)N[C@@H](CCC(N)=O)C(=O)N[C@@H](CC(N)=O)C(=O)N1)C(=O)NCC(N)=O` [Example 53] (GYIQNE[Sar][Aoc(2)]G-NH2; lactam N-6), the EC50 worked out at 1.1 nM and the Emax was 127%.
With `CC[C@H](C)[C@@H]1NC(=O)[C@H](Cc2ccc(O)cc2)NC(=O)CNC(=O)CC[C@@H](C(=O)N2CCC[C@H]2C(=O)N[C@@](C)(CC(C)C)C(=O)NCC(N)=O)NC(=O)[C@H](CC(N)=O)NC(=O)[C@H](CCC(N)=O)NC1=O` [Example 36] (GYIQNEP[αMeL]G-NH2; lactam N-6), the EC50 was 41 nM and the “hOT efficacy (%)” value is given as 138%.
Regarding `CC[C@H](C)[C@@H]1NC(=O)[C@H](Cc2ccc(O)cc2)NC(=O)CNC(=O)CC[C@@H](C(=O)N2CCC[C@H]2CC(=O)N[C@@H](CC(C)C)C(=O)NCC(N)=O)NC(=O)[C@H](CC(N)=O)NC(=O)[C@H](CCC(N)=O)NC1=O` [Example 4] (GYIQNE[β3hP]LG-NH2; lactam N-6), the EC50 stood at 31 nM and the “hOT efficacy (%)” value amounted to 102%.
Turning to `CC(C)C[C@@H]1NC(=O)[C@H](Cc2ccc(O)cc2)NC(=O)CNC(=O)CC[C@@H](C(=O)N2CCC[C@H]2C(=O)N[C@@H](CC(C)C)C(=O)NCC(N)=O)NC(=O)[C@H](CC(N)=O)NC(=O)[C@H](CCC(N)=O)NC1=O` [Example 8] (GYLQNEPLG-NH2; lactam N-6), the EC50 is 100 nM and the “hOT efficacy (%)” value was 92%.
`CC[C@H](C)[C@@H]1NC(=O)[C@H](Cc2ccc(O)cc2)NC(=O)CNC(=O)CC[C@@H](C(=O)N2CCC[C@H]2C(=O)NCC(=O)NCC(N)=O)NC(=O)[C@H](CC(N)=O)NC(=O)[C@H](CCC(N)=O)NC1=O` [Example 7] (GYIQNEPGG-NH2; lactam N-6): the EC50 was determined as 124 nM and the “hOT efficacy (%)” value stood at 87%.
Turning to `CC[C@H](C)[C@@H]1NC(=O)[C@H](Cc2ccc(O)cc2)NC(=O)CNC(=O)CC[C@@H](C(=O)N(C)CC(=O)N[C@@H](CC(C)C)C(=O)NCC(N)=O)NC(=O)[C@H](CC(N)=O)NC(=O)[C@H](C(C)C)NC1=O` [Example 55] (GYIVNE[Sar]LG-NH2; lactam N-6), the EC50 is 20 nM and the “hOT efficacy (%)” value amounted to 104%.
As to `CC[C@H](C)[C@@H]1NC(=O)[C@H](Cc2ccc(O)cc2)NC(=O)CNC(=O)CC[C@H](C(=O)N2CCC[C@H]2C(=O)N[C@@H](CC(C)C)C(=O)NCC(N)=O)NC(=O)[C@H](CC(N)=O)NC(=O)[C@H](CCC(N)=O)NC1=O` [Example 14] (GYIQN[dE]PLG-NH2; lactam N-6), the concentration giving a half-maximal response (EC50) came to 250 nM and the “hOT efficacy (%)” value was 92%.
As for `CC[C@H](C)[C@@H]1NC(=O)[C@H](Cc2ccc(O)cc2)NC(=O)CNC(=O)CC[C@@H](C(=O)N(C)CC(=O)N[C@@H](CCC(C)C)C(=O)NCC(N)=O)NC(=O)[C@H](CC(N)=O)NC(=O)[C@H](CCC(N)=O)NC1=O` [Example 43] (GYIQNE[Sar][hLeu]G-NH2; lactam N-6), the EC50 amounted to 26 nM and the “hOT efficacy (%)” value came to 124%.
As for `CC[C@H](C)[C@@H]1NC(=O)[C@H](Cc2ccc(O)cc2)NC(=O)CN(C)C(=O)CC[C@@H](C(=O)N2CCC[C@H]2C(=O)N[C@@H](CC(C)C)C(=O)NCC(N)=O)NC(=O)[C@H](CC(N)=O)NC(=O)[C@H](CCC(N)=O)NC1=O` [Example 12] ([Sar]YIQNEPLG-NH2; lactam N-6), the EC50 stood at 48 nM and the “hOT efficacy (%)” value is listed as 82%.
`CC[C@H](C)[C@@H]1NC(=O)[C@H](Cc2ccc(O)cc2)NC(=O)CNC(=O)CC[C@@H](C(=O)N(C)CC(=O)NC(C)(C)C(=O)NCC(N)=O)NC(=O)[C@H](CC(N)=O)NC(=O)[C@H](CCC(N)=O)NC1=O` [Example 49] (GYIQNE[Sar][Aib]G-NH2; lactam N-6): the EC50 is 5.9 nM and the Emax was determined as 97%.
With `CC[C@H](C)[C@@H]1NC(=O)[C@H](Cc2ccc(O)cc2)NC(=O)CNC(=O)CC[C@@H](C(=O)N(C)CC(=O)N[C@@H](CC(C)C)C(=O)NCC(N)=O)NC(=O)[C@H](CC(N)=O)NC(=O)[C@H](CO)NC1=O` [Example 52] (GYISNE[Sar]LG-NH2; lactam N-6), the EC50 was 4.3 nM and the Emax is 121%.
With `CC[C@H](C)[C@@H]1NC(=O)[C@H](Cc2ccc(O)cc2)NC(=O)CNC(=O)CC[C@@H](C(=O)N(C)CC(=O)N[C@H](C(=O)NCC(N)=O)C2CCCCC2)NC(=O)[C@H](CC(N)=O)NC(=O)[C@H](CCC(N)=O)NC1=O` [Example 41] (GYIQNE[Sar][Chg]G-NH2; lactam N-6), the EC50 is 69 nM and the “hOT efficacy (%)” value is given as 117%.
